Experimental data from patent publication US8361780B2, “Biological system and assay for identifying modulators of tubulin ligases” (University of Georgia Research Foundation, Inc., priority 2005, dated 2013).

Experiments:
Tetrahymena = details: cited from earlier work
[1] = system: cytoplasmic microtubules of wild-type Tetrahymena cells; assay: Stability of cell body microtubules against microtubule-destabilizing compounds, wild-type cells; assay type: cell-based, Tetrahymena thermophila; details: nocodazole 40 μM, oryzalin 10 μM, 30 min
Experimental: (§1) Immunofluorescence and electron microscopy. GFP-Ttll6Ap-expressing cells were grown in SPP with 0.5 to 2.5 μg of CdCl2/ml for 2 to 4 h. For GFP-Ttll6Ap localization, a 10-μl drop of cells was placed on a coverslip, followed by the addition of 20 μl of 2% paraformaldehyde in PHEM buffer (Schliwa and van Blerkom. 1981. J. Cell Biol. 90:222-235) and, after 20 s, the addition of 10 μl of 0.5% Triton X-100 in PHEM. The cells were subjected to immunofluorescence (Janke et al., 2005. Science 308:1758-1762) with the following primary antibodies: 12G10, an anti-α-tubulin monoclonal antibody (MAb) (Jerka-Dziadosz et al., 1995. Dev. Biol. 169:644-661) at 1:50; MAb ID5 (40), which in Tetrahymena is specific to polyglutamylated tubulin (Wloga et al., 2008. Eukaryot. Cell 7:1362-1372), at 1:50; poly(E) antipolyglutamic acid antibodies (1:100) (Shang et al., 2002. J. Cell Biol. 158:1195-1206); TAP952, an anti-monoglycylated tubulin MAb (1:5,000) (Bré et al., 1998. Mol. Biol. Cell 9:2655-2665; Callen et al., 1994. Biol. Cell 81:95-119); and 6-11 B-1, an anti-acetyl-K40 α-tubulin MAb (1:200) (LeDizet and Piperno. 1991.

[2] = system: cell body microtubules of GFP-Ttll6Ap-overexpressing Tetrahymena cells; assay: Stability of cell body microtubules against microtubule-destabilizing compounds, GFP-Ttll6Ap-overexpressing cells; assay type: cell-based, Tetrahymena thermophila; details: nocodazole 40 μM, oryzalin 10 μM, 30 min
Experimental: as §1

3AB-KO Tetrahymena cells = assay: Axoneme elongation by paclitaxel in 3AB-KO cells (immunofluorescence); assay type: cell-based, Tetrahymena thermophila; details: 25 μM paclitaxel for 4 hr
Experimental: Cultures. Tetrahymena thermophila cells were grown in SPP medium. To determine the growth rate, cells were diluted to 10^4 cells/ml and grown in 10 ml of SPP in 150 ml flasks. In some experiments, paclitaxel (LC Laboratories, Woburn, Mass.) was added to the SPP medium. WT in Kalkutta and Tupfel longfin (commonly known as “WIK” and “TL”, respectively) zebrafish were raised at 28° C. at 14 hr light/10 hr dark cycle. The embryos were cultured in egg water at 28° C.
Immunofluorescence and Electron Microscopy of Tetrahymena. Immuno-fluorescence was done as previously described (Wloga et al., 2006. Mol. Biol. Cell 17, 2799-2810) and quantified using mixed mutant and WT cells (fed with India ink) imaged side by side. The average pixel intensity was determined for sections of axonemes from the base to below the tip using ImageJ. TEM was performed as previously described (Jerka-Dziadosz et al., 2001. Protist 152, 53-67). For immunoelectron TEM, cells were fixed as for immunofluorescence, reacted with anti-GFP antibodies (1:1000; Abcam) in 3% bovine serum albumin (BSA) in the PHEM buffer with 0.1% Tween-20 for 2 hr, followed by anti-rabbit IgG-10 nm gold antibodies (GE Healthcare) at 1:60 in 3% BSA in PBS for 1.5 hr. […] After washing, cells were dehydrated in an ethanol series, embedded in Epon, sectioned, and analyzed in a JEM 1210 electron microscope.

[3] = system: GFP-Ttll6Ap-overproducing Tetrahymena cells; assay: Cilium length in paclitaxel-treated GFP-Ttll6Ap-overproducing cells (immunofluorescence); assay type: cell-based, Tetrahymena thermophila; details: 40 μM paclitaxel for 3 h
Experimental: as §1, with “1991. Methods Enzymol. 196:264-274). The secondary goat antibodies were as follows: anti-mouse-FITC, anti-mouse-Cy3, anti-rabbit-Cy3, and anti-rabbit-Cy5 (Zymed) at 1:200 dilutions. Cells were viewed under either Leica TCS SP or Zeiss LSM 510 VIS/META confocal microscopes. To measure the length of the cilia, the cells were labeled with MAb 12G10, [and, in some experiments, double labeled with poly(E) antibodies]. Confocal images were recorded with a 0.8-μm distance between z-sections, and sets of two to four z-sections were merged. The lengths of the cilia were measured by using ImageJ 1.37. For transmission electron microscopy (TEM), the cells were prepared as described previously (Jerka-Dziadosz et al., 2001. Protist 152:53-67).” for “1991.”

[4] = system: wild-type Tetrahymena cells; assay: Axoneme/cilium length in paclitaxel-treated wild-type cells (immunofluorescence); assay type: cell-based, Tetrahymena thermophila
Experimental: as §1, with “1991. Methods Enzymol. 196:264-274). The secondary goat antibodies were as follows: anti-mouse-FITC, anti-mouse-Cy3, anti-rabbit-Cy3, and anti-rabbit-Cy5 (Zymed) at 1:200 dilutions. Cells were viewed under either Leica TCS SP or Zeiss LSM 510 VIS/META confocal microscopes. […] Confocal images were recorded with a 0.8-μm distance between z-sections, and sets of two to four z-sections were merged. The lengths of the cilia were measured by using ImageJ 1.37. […]” for “1991.”
Immunofluorescence and Electron Microscopy of Tetrahymena. Immuno-fluorescence was done as previously described (Wloga et al., 2006. Mol. Biol. Cell 17, 2799-2810) and quantified using mixed mutant and WT cells (fed with India ink) imaged side by side. The average pixel intensity was determined for sections of axonemes from the base to below the tip using ImageJ. […] After washing, cells were dehydrated in an ethanol series, embedded in Epon, sectioned, and analyzed in a JEM 1210 electron microscope.

zebrafish embryos [5] = assay: Tubulin monoglycylation in cilia of zebrafish embryos (TAP952 immunofluorescence); assay type: in vivo
Text: (§2) MO Knockdowns in Zebrafish Embryos. TTLL3-ATG MO (5′ […] 3′; SEQ ID NO:129) and TTLL3-SP MO (5′ […] 3; SEQ ID NO:130) were obtained from Open Biosystems (Huntsville, AL). TTLL3-ATG targets the translation initiation site of ttll3 mRNA. TTLL3-SP is predicted to prevent splicing of exon 11 and cause a frame shift in exon 12. This would eliminate the coding sequence downstream of exon 10, which includes a conserved catalytic domain-encoding region. To evaluate the effect of TTLL3-SP on ttll3 mRNA, total RNA was isolated with TRIzol reagent (Invitrogen, Inc., Carlsbad, Calif.) from embryos at 7 hpf: 50 uninjected control embryos, 40 embryos injected with 3 ng TTLL3-SP MO, or 30 embryos injected with 5 ng TTLL3-SP MO. Total RNA ([…]) was used as a template for cDNA synthesis with random hexamers and oligo-dT primers and the iScript TM cDNA synthesis kit (Bio-Rad Laboratories, Hercules, Calif.). cDNA ([…]) was amplified with the following primers spanning exon 11: TTLL3-splice F, 5′-[…]-3′ (exon 10; SEQ ID NO:131); TTLL3-splice R, 5′-[…]-3′ (exon 12; SEQ ID NO:132). As expected, primers flanking exon 11 produced a shorter product in RT-PCR from embryos injected with TTLL3-SP than in controls (FIG. 50D). […] As a negative control, we injected 25 base MOs with a random base mixture at each position (Gene Tools, Inc., Philomath, Oreg.).
(§3) Microscopy of Zebrafish. For whole-mount, in situ hybridization, embryos were fixed as previously described (Hagos and Dougan, 2007), stored in 100% methanol at −20° C., and stained with spaw, lefty1, lefty2, and cmlc2 probes (Yelon, 2001). Embryos were photographed under differential interference contrast with a Zeiss Axioplan 2 microscope with Slidebook (Intelligent Imaging Innovations, Denver, Colo.). For immunofluorescence, the embryos were manually dechorionated and fixed with 0.5% Triton X-100 and 4% paraformaldehyde in PBT (0.1% Tween-20 in PBS) at 4° C. overnight. After washing with PBT, embryos were dehydrated in methanol/PBT series and incubated overnight in 100% methanol at −20° C. After rehydration, embryos were blocked for 1-2 hr in 2% BSA, 0.5% normal goat serum,l%DMSO, 0.5% Triton X-100 in PBS, and incubated overnight at 4° C. with one of the following antibodies: 6-11 B-1 (1:1000); TAP952 (1:2000); AXO49 (1:2000); and GT335 (1:1000); polyE (1:500). After washing 3×10 min with 0.5% Triton X-100 in PBS, embryos were incubated overnight at 4° C. in anti-mouse-IgG-FITC or anti-rabbit-IgG-Cy3 (1:500; Zymed), washed (3×10 min), mounted in 100 mg/ml of DABCO (Sigma-Aldrich) in PBS, and examined on a Leica TCS SP confocal microscope.

zebrafish embryos [6] = assay: Expression pattern of lefty2 in zebrafish embryos (in situ hybridization); assay type: in vivo
Text: as §2, §3

zebrafish embryos [7] = assay: Heart position in zebrafish embryos, in situ hybridization; assay type: in vivo
Text: as §2, §3

zebrafish embryos [8] = assay: Morphology of zebrafish morphant embryos; details: in vivo
Text: as §2

zebrafish embryos [9] = assay: Expression pattern of southpaw in zebrafish embryos (in situ hybridization); assay type: in vivo
Text: as §2, §3

zebrafish embryos [10] = assay: Heart position in zebrafish embryos, scoring live embryos; assay type: in vivo
Text: as §2

[11] = GFP-Ttll6Ap-overexpressing cells

Compound: C[S+](C)[O-] [DMSO]
- concentration tolerated well (Tetrahymena): up to 2.5%

Compound: COC(=O)Nc1nc2ccc(C(=O)c3cccs3)cc2[nH]1 [nocodazole]
- effect on cytoplasmic microtubules [1]: rapid depolymerization of cytoplasmic microtubules
- effect on cell body microtubules [2]: retained abundant cell body microtubules

Compound: CC(=O)O[C@H]1C(=O)[C@@]2(C)[C@H]([C@H](OC(=O)c3ccccc3)[C@]3(O)C[C@H](OC(=O)[C@H](O)[C@@H](NC(=O)c4ccccc4)c4ccccc4)C(C)=C1C3(C)C)[C@]1(OC(C)=O)CO[C@@H]1C[C@@H]2O [paclitaxel]
- elongation of axonemes (3AB-KO Tetrahymena cells): not observed
- elongation of preexisting cilia [3, 11]: 22%
- length of preexisting cilia, paclitaxel treated [3, 11]: 6.39±0.82 μm
- length of assembling cilia, paclitaxel treated ([3]; GFP-Ttll6Ap-overproducing cells): 2.7±0.6 μm
- change of length of assembling cilia ([3]; GFP-Ttll6Ap-overproducing cells, vs no drug): 44%
- effect on axonemes ([4]; 25 μM paclitaxel for 4 hr): remarkable elongation of axonemes
- increase of the average axoneme length ([4]; 40 μM paclitaxel for 3 h): 20%
- axoneme length after treatment ([4]; 40 μM paclitaxel for 3 h, n=173): 6.05±1.12 μm

Compound: TTLL3-ATG-MO: antisense morpholino 5′ GTGTTGGTGCATGTTTGAGTTAACC 3′; targets the translation initiation site of ttll3 mRNA (all phosphorodiamidate morpholino (PMO))
- levels of tubulin monoglycylation/glycylation in cilia (zebrafish embryos [5]; 72 hpf, TTLL3-ATG MO 1 ng, TTLL3-SP MO 3 ng): greatly reduced
- morphants with TAP952 signal not detected in cilia of the distal part of pronephric duct (zebrafish embryos [5]; n=46): 98%
- morphants with TAP952 signal not detected in cilia of the medial part of pronephric duct (zebrafish embryos [5]; n=46): 61%
- morphants with TAP952 signal not detected in cilia of the spinal cord (zebrafish embryos [5]; n=46): 89%
- lefty2 expression: Bilatera or midline, number of embryos (zebrafish embryos [6]): 5
- lefty2 expression: Bilatera or midline, percent of embryos (zebrafish embryos [6]): (11.9%)
- lefty2 expression: No specific signal, number of embryos (zebrafish embryos [6]): 8
- lefty2 expression: No specific signal, percent of embryos (zebrafish embryos [6]): (19%)
- lefty2 expression: left, number of embryos (zebrafish embryos [6]): 15
- lefty2 expression: left, percent of embryos (zebrafish embryos [6]): (35.7%)
- lefty2 expression: right, number of embryos (zebrafish embryos [6]): 14
- lefty2 expression: right, percent of embryos (zebrafish embryos [6]): (33.4%)
- heart position left, number of embryos (zebrafish embryos [7]): 21
- heart position left, percent of embryos (zebrafish embryos [7]): 50%
- heart position middle, number of embryos (zebrafish embryos [7]): 7
- heart position middle, percent of embryos (zebrafish embryos [7]): 16.7%
- heart position right, number of embryos (zebrafish embryos [7]): 14
- heart position right, percent of embryos (zebrafish embryos [7]): (33.3%)
- hydrocephalic morphants (zebrafish embryos [8]): 10%
- morphant embryos with curly tail (zebrafish embryos [8]): 76%
- southpaw expression: Bilatera or midline, number of embryos (zebrafish embryos [9]): 34
- southpaw expression: Bilatera or midline, percent of embryos (zebrafish embryos [9]): (43.7%)
- southpaw expression: No specific signal, number of embryos (zebrafish embryos [9]): 19
- southpaw expression: No specific signal, percent of embryos (zebrafish embryos [9]): (24.3%)
- southpaw expression: left, number of embryos (zebrafish embryos [9]): 14
- southpaw expression: left, percent of embryos (zebrafish embryos [9]): (17.9%)
- southpaw expression: right, number of embryos (zebrafish embryos [9]): 11
- southpaw expression: right, percent of embryos (zebrafish embryos [9]): (14.1%)
- heart position left, number of embryos (zebrafish embryos [10]): 56
- heart position left, percent of embryos (zebrafish embryos [10]): 50%
- heart position middle, number of embryos (zebrafish embryos [10]): 33
- heart position middle, percent of embryos (zebrafish embryos [10]): 29.5%
- heart position right, number of embryos (zebrafish embryos [10]): 23
- heart position right, percent of embryos (zebrafish embryos [10]): (20.5%)
